From patent US4812465A, “Triazole derivatives for use as antimycotic agents” (CL Pharma Aktiengesellschaft, priority 1986, dated 1989)

Tests used:
Absidia ramosa = assay: In vitro determination of minimum inhibitory concentration (MIC), serial dilution; assay type: cell-based; settings: Lichtheimia ramosa, 336 h, pH 6, Absidia ramosa; pH 6.0, 22° C., 14 days
Protocol: (§1) The antimycotic activities of the compounds were measured by in vitro determination of the minimum inhibitory concentration (MIC) for yeasts, molds and dermatophytes.
(§2) 6 dermatophytes, 2 yeasts and 4 molds were used for testing with fungi, as follows:
(§3) The minimum inhibitory concentration (MIC) was determined in serial dilution tests in test tubes. The volume of the liquid nutrient medium in each test tube was 4.5 ml.
(§4) The substances were dissolved in DMSO and diluted with sterile distilled water to 10 concentrations (100, 50, 25, 12.5, 6.25, 3.12, 1.56, 0.78, 0.39 and 0.19 μg/ml). 0.5 ml of each of these dilution steps was added to liquid nutrient medium. Thus, a constant concentration of solvent in all the nutrient media was ensured, irrespective of the active compound concentration.
(§5) A comparison solution which contained only the solvent in appropriate concentration was included when carrying out each of the tests.
(§6) The individual strains were maintained on Sabouraud/beerwort agar slants and, before they were used in a test, they underwent a passage on a modified Sabouraud liquid nutrient medium. The strains were then harvested, washed and converted into a suspension of McFaerland 3 in the case of yeasts and molds and of McFaerland 4-5 in the case of dermatophytes.
(§7) The amount of material inoculated (inoculum) was 100 μl/test tube (inoculated densities: yeasts about 10^3 /ml, molds about 10^4 /ml, dermatophytes about 10^4 /ml). The pH of the liquid nutrient medium was 6.0. After inoculation had taken place the fungi were incubated at 22° C. for 14 days.
(§8) The MIC was then determined. The concentration step at which growth was no longer visible on macroscopic inspection was used for the determination of the MIC. The comparison substance used was 1-(2-(2,4-dichlorophenyl)-2-(2,4-dichlorophenylmethoxy)ethyl)-1H-imidazole(compound A).

Aspergillus fumigatus = assay: as above; assay type: cell-based; settings: 20160 min, pH 6
Protocol: as §1, §2, §3, §4, §5, §6, §7, §8

Candida albicans = assay: as above; assay type: cell-based; settings: 336 h, pH 6, Candida albicans, pH 6.0, 22° C., 14 days, read-out: MIC C.alb
Protocol: as §1, §2, §3, §4, §5, §6, §7, §8

Candida tropicalis = assay: as above; assay type: cell-based; settings: 336 h, pH 6, Candida tropicalis, pH 6.0, 22° C., 14 days, read-out: MIC C.trop
Protocol: as §1, §2, §3, §4, §5, §6, §7, §8

Epidermophyton floccosum = assay: as above; assay type: cell-based; settings: 336 h, pH 6, Epidermophyton floccosum, pH 6.0, 22° C., 14 days
Protocol: as §1, §2, §3, §4, §5, §6, §7, §8

Microsporum canis = assay: as above; assay type: cell-based; settings: 336 h, pH 6, Microsporum canis, pH 6.0, 22° C., 14 days
Protocol: as §1, §2, §3, §4, §5, §6, §7, §8

Microsporum gypseum = assay: as above; assay type: cell-based; settings: Nannizzia gypsea, 336 h, pH 6, Microsporum gypseum; pH 6.0, 22° C., 14 days; read-out: MIC Mi.gyp
Protocol: as §1, §2, §3, §4, §5, §6, §7, §8

Mucor mucedo minus = assay: as above; assay type: cell-based; settings: Mucor mucedo, 336 h, pH 6, Mucor mucedo minus; pH 6.0, 22° C., 14 days
Protocol: as §1, §2, §3, §4, §5, §6, §7, §8

Mucor mucedo plus = assay: as above; assay type: cell-based; settings: Mucor mucedo, 336 h, pH 6, Mucor mucedo plus; pH 6.0, 22° C., 14 days
Protocol: as §1, §2, §3, §4, §5, §6, §7, §8

[1] = system: Trichophyton mentagrophytes; assay: as above; assay type: cell-based; settings: 336 h, pH 6, Trichophyton mentagrophytes, pH 6.0, 22° C., 14 days
Protocol: as §1, §2, §3, §4, §5, §6, §7, §8

Trichophyton rubrum = assay: as above; assay type: cell-based; settings: 336 h, pH 6, Trichophyton rubrum, pH 6.0, 22° C., 14 days
Protocol: as §1, §2, §3, §4, §5, §6, §7, §8

Trichophyton verrucosum = assay: as above; assay type: cell-based; settings: 336 h, pH 6, Trichophyton verrucosum, pH 6.0, 22° C., 14 days
Protocol: as §1, §2, §3, §4, §5, §6, §7, §8

mice [2] = assay: Determination of the lethal dose on single oral administration; assay type: in vivo; settings: for LD100: oral, once
Protocol: (§9) Determination of the lethal dose of 1-(2-(2,4-dichlorophenyl)-2-(3-(4-chlorophenylthio)propylamino)ethyl)-1H-imidazole dihydrochloride (compound No. 96) in mice and rats on administration once.
(§10) In each case, oral doses of 0, 500, 1,000 and 3,000 mg/kg of body weight were administered to four groups of female and male animals.
(§11) (Control: double-distilled water)
(§12) The following clinical signs were observed.

rats [3] = assay: as above; assay type: in vivo; settings: for LD100: oral, once
Protocol: as §9, §10, §11, §12

[4] = Determination of the LD50 by i.v. administration; assay type: in vivo; settings: in vivo, iv
Protocol: (§13) Determination of the LD50 of 1-(2-(2,4-dichlorophenyl)-2-(3-(4-chlorophenylthio)propylamino)ethyl)-1H-imidazole dihydrochloride (compound No. 96) in mice and rats by i.v. administration. In each case, 0 (0.9% NaCl solution), 12.5, 25.0, 50.0 and 100 mg/kg of body weight were injected i.v. into 5 groups of female and male animals.
as §12

mice [5] = assay: Determination of the LD50 by i.v. administration; assay type: in vivo; settings: i.v. 12.5-100 mg/kg
Protocol: as §13, §12

rats [6] = assay: Determination of the LD50 by i.v. administration; assay type: in vivo; settings: i.v. 12.5-100 mg/kg
Protocol: as §13, §12

[7] = system: Salmonella typhimurium strains TA 1535, TA 1537, TA 1538, TA 98 and TA 100; assay: Potential to cause gene mutations in Salmonella typhimurium; assay type: cell-based; settings: 3.3-1,000 μg/plate
Protocol: Compound No. 96 was investigated for its potential to cause gene mutations in five Salmonella typhimurium strains TA 1535, TA 1537, TA 1538, TA 98 and TA 100.
The following concentrations were tested, both with metabolic activator (S 9 mix) and without metabolic activator.

[8] = oral 0, 500, 1,000 and 3,000 mg/kg

Cl.Cl.Clc1ccc(SCCCNC(Cn2ccnc2)c2ccc(Cl)cc2Cl)cc1 (centres unmarked) [Compound 96, 1-(2-(2,4-dichlorophenyl)-2-(3-(4-chlorophenylthio)propylamino)ethyl)-1H-imidazole dihydrochloride]
MIC (Absidia ramosa): 1.56 µg/mL
MIC Asp.fu. (Aspergillus fumigatus): 0,78 μg/ml
MIC (Candida albicans): 0.39 µg/mL
MIC (Candida tropicalis): 0.78 µg/mL
MIC (Epidermophyton floccosum): 0.19 µg/mL
MIC (Microsporum canis): 0.39 µg/mL
MIC (Microsporum gypseum): 0.39 µg/mL
MIC (Mucor mucedo minus): 1.56 µg/mL
MIC (Mucor mucedo plus): 1.56 µg/mL
MIC [1]: 0.39 µg/mL
MIC (Trichophyton rubrum): 0.19 µg/mL
MIC (Trichophyton verrucosum): 0.39 µg/mL
LD100 (mice [2]; female): > 1,000 mg/kg
LD100 (mice [2]; male): > 500 mg/kg
clinical signs (mice [2]; [8]): Inactivity, convulsions
LD100 (rats [3]; female): > 500 mg/kg
LD100 (rats [3]; male): > 1,000 mg/kg
clinical signs (rats [3]; [8]): Inactivity, ruffled fur, convulsions
LD50 ([4]; mouse, mice, female, range in parentheses): 84.1 mg/kg
LD50 ([4]; mouse, mice, male, range in parentheses): 42 mg/kg
LD50 ([4]; rat, rats, female, range in parentheses): 56.1 mg/kg
LD50 ([4]; rat, rats, male): 70.7 mg/kg
clinical signs (mice [5]): Inactivity, necrotic tail
clinical signs (rats [6]): Inactivity, necrotic tail, convulsions
mutagenic activity ([7]; with metabolic activator (S 9 mix)): No mutagenic activity whatever was observed
mutagenic activity ([7]; without metabolic activator): No mutagenic activity whatever was observed
